What was measured:
[1] = previously reported (Selenica et al. 2007); cited from earlier work
[2] = test system: neural progenitors in embryonic mouse brains; assay: In utero electroporation of shRNA into E13 embryonic mouse brains; assay type: in vivo
Excerpt: • Mice. Swiss Webster pregnant female mice were purchased from Taconic (Hudson, N.Y.). • Cell Culture. AHPs were kindly provided by Dr. Gage (Lie, D. C. et al. Wnt signaling to regulates adult hippocampal neurogenesis. Nature 437, 1370-5 (2005)) and cultured under conditions described previously (Palmer, T. D., Takahashi, J. & Gage, F. H. The adult rat hippocampus contains primordial neural stem cells. Mol Cell Neurosci 8, 389-404 (1997)). Primary neural progenitors were isolated from E14 mouse embryos and cultured as described previously (Sanada, K. & Tsai, L. H. G protein betagamma subunits and AGS3 control spindle orientation and asymmetric cell fate of cerebral cortical progenitors. Cell 122, 119-31 (2005)). N2a and 293T cells were cultured in DMEM medium containing 10% FBS, L-glutamine, and penicillin/streptomycin. Wnt3a expressing L cells and untransfected L cells were obtained from ATCC (Manassas, Va.). Wnt3a conditional medium was produced according to the ATCC protocol. To induce AHP differentiation, FGF2 was removed from the culture medium and 1 μM retinoic acid/1% FBS was added to the medium for 4 days. • Reagents. Recombinant Wnt3a protein was obtained from Chemicon (Rosemont, Ill.). FGF2 was obtained from PeproTech (Rocky Hill, N.J.). Recombinant GST-GSK3β was obtained from Active Motif (Carlsbad, Calif.). Recombinant GST-β-catenin and GST-axin were obtained from Millipore (Billerica, Mass.). The GSK313 inhibitor, SB-216763, AR-A104418 and His-GSK3β, were obtained from Sigma-Aldrich (Sigma-Aldrich, St. Louis, Mo.). L803-MTS was obtained from Calbiochem (San Diego, Calif.). GST-AKT1 was obtained from Cell Signaling (Beverly, Mass.). GST-CASK-1 (CASK fragment from 316-415aa), GST-CASK-2 (CASK fragment from 777-974aa), and GST-p25 proteins were kindly provided by Dr. B. A. Samuels. Mouse DISC1 peptidel (40-78aa: GYMRSTAGSG IGFLSPAVGMPHPSSAG LTGQQSQHSQS; SEQ ID NO: 1) and Mouse DISC1 peptide 2 (195-238aa, […] GERGEAEGCLPSREAE; SEQ ID NO: 2) were synthesized by Chi Scientific (Maynard, Mass.). • Antibodies. The primary antibodies used in this study were the following: rabbit anti-DISC1 C-terminal antibody, mouse and rabbit anti-GFP antibodies (Invitrogen, Carlsbad, Calif.); affinity purified rabbit anti-DISC1 antibody (Novus, Littleton, Colo.) for immunohistochemistry; mouse anti-FLAG and mouse anti-Actin antibody; mouse anti-GSK3β antibody, mouse anti-β-catenin antibody, mouse anti-pY216 GSK3β antibody, and mouse anti-nestin antibody (BD Biosciences, San Diego, Calif.); rabbit anti-[…] β-catenin antibody, rabbit anti-pS9 GSK3β antibody, and mouse anti-cyclin to D1 antibody (Cell Signaling); mouse anti-Dv12 antibody, mouse anti-HA antibody, mouse anti-GST antibody, mouse anti-ubiquitin antibody, and rabbit anti-β-catenin antibody (Santa Cruz, Santa Cruz, Calif.); mouse Tuj-1 antibody (BABCO, Harrisburg, Pa.); mouse anti-BrdU antibody (DakoCytomation, Glostrup, Denmark); guinea pig anti-doublecortin antibody (Chemicon, Rosemont, Ill.); chicken anti-GFP antibody (Ayes Labs, Tigard, Oreg.); rabbit anti-pS10 Histone H3 antibody (Upstate, Lake Placid, N.Y.). • Constructs. The sequences for shRNAs targeting DISC1 are as follows: control shRNA: 5′-CGGCTGAAACAAGAGTTGG-3′ (SEQ ID NO:3); DISC1 shRNA-1: 5′-GGCAAACACTGTGA AGT GC-3′ (SEQ ID NO:4); DISC1 shRNA-2: 5′-[…]-3′ (SEQ ID NO:5)(Kamiya A. et al. A schizophrenia-associated mutation of DISC1 perturbs cerebral cortex development. Nat. Cell Biol 7, 1167-78 (2005)). DISC1 shRNA-1 recognizes both rat and mouse DISC1. […]

[3] = test system: AHPs; assay: Immunoblot of β-catenin and cyclin D1 in transduced AHPs; assay type: cell-based
Excerpt: • Mice. Swiss Webster pregnant female mice were purchased from Taconic (Hudson, N.Y.). • Cell Culture. AHPs were kindly provided by Dr. Gage (Lie, D. C. et al. Wnt signaling to regulates adult hippocampal neurogenesis. Nature 437, 1370-5 (2005)) and cultured under conditions described previously (Palmer, T. D., Takahashi, J. & Gage, F. H. The adult rat hippocampus contains primordial neural stem cells. Mol Cell Neurosci 8, 389-404 (1997)). Primary neural progenitors were isolated from E14 mouse embryos and cultured as described previously (Sanada, K. & Tsai, L. H. G protein betagamma subunits and AGS3 control spindle orientation and asymmetric cell fate of cerebral cortical progenitors. Cell 122, 119-31 (2005)). N2a and 293T cells were cultured in DMEM medium containing 10% FBS, L-glutamine, and penicillin/streptomycin. Wnt3a expressing L cells and untransfected L cells were obtained from ATCC (Manassas, Va.). Wnt3a conditional medium was produced according to the ATCC protocol. To induce AHP differentiation, FGF2 was removed from the culture medium and 1 μM retinoic acid/1% FBS was added to the medium for 4 days. • Reagents. Recombinant Wnt3a protein was obtained from Chemicon (Rosemont, Ill.). FGF2 was obtained from PeproTech (Rocky Hill, N.J.). Recombinant GST-GSK3β was obtained from Active Motif (Carlsbad, Calif.). Recombinant GST-β-catenin and GST-axin were obtained from Millipore (Billerica, Mass.). The GSK313 inhibitor, SB-216763, AR-A104418 and His-GSK3β, were obtained from Sigma-Aldrich (Sigma-Aldrich, St. Louis, Mo.). L803-MTS was obtained from Calbiochem (San Diego, Calif.). GST-AKT1 was obtained from Cell Signaling (Beverly, Mass.). GST-CASK-1 (CASK fragment from 316-415aa), GST-CASK-2 (CASK fragment from 777-974aa), and GST-p25 proteins were kindly provided by Dr. B. A. Samuels. Mouse DISC1 peptidel (40-78aa: GYMRSTAGSG IGFLSPAVGMPHPSSAG LTGQQSQHSQS; SEQ ID NO: 1) and Mouse DISC1 peptide 2 (195-238aa, […] GERGEAEGCLPSREAE; SEQ ID NO: 2) were synthesized by Chi Scientific (Maynard, Mass.). • Antibodies. […]

[4] = test system: DISC1 shRNA infected mice; assay: Elevated plus-maze; assay type: in vivo, mouse; details: lentivirus in adult dentate gyrus
Method: Alterations in neurogenesis are implicated in the development of depression and other abnormal behaviors. To examine the behavioral consequences of disrupting the DICS1/GSK3β pathway, we silenced DISC1 expression in the adult dentate gyms and evaluated behavioral consequences. Four weeks after the injection of control or DISC1 shRNA-1 lentivirus, mice were treated with vehicle or SB-216763 (2 mg/kg i.p.) every other day for 10 days. […] DISC1 shRNA injected mice traveled a greater distance and spent more time moving in a novel open field than control mice (FIG. 17A). These behaviors were normalized by SB-216763 treatment. We further tested whether DISC1 loss-of-function had consequences on depression-like behavior in the forced swim test. […] Importantly, swimming velocity was unchanged. […] Thus, increased GSK3β activity caused by DISC1 loss-of-function is associated with schizophrenia- and depression-like behaviors.

[5] = electroporated at E13, analyzed 3 days later

Row | Compound | crossing of the blood-brain barrier [1] | BrdU labeling ([2]; BrdU 2 hours prior to collection) | cell cycle exit index ([2]; electroporated E13, BrdU at E15, collected E16) | GFP+Dcx+ cells ([2]; electroporated E13, sacrificed E16, SVZ) | GFP positive cells in the VZ/SVZ [2, 5] | GFP positive cells in the cortical plate [2, 5] | mitotic index ([2]; pH3, electroporated E13, sacrificed E15) | reduction of Cyclin D1 levels [3] | β-catenin levels [3] | anxiety in elevated plus-maze [4]
1 | Cn1cc(C2=C(c3ccc(Cl)cc3Cl)C(=O)NC2=O)c2ccccc21 [SB-216763] | cross the blood-brain barrier | – | – | – | – | – | – | – | – | –
2 | DISC1 shRNA-1: shRNA targeting rat and mouse DISC1, SEQ ID NO:4, in pLentiLox 3.7 vector (GGCAAACACTGTGAAGTGC) | – | 18.2±2.2% | 53.2±6.1% | 36.7±4.2% | 13% | 59.6% | 3.8±0.8% | 50% | 35 % to control | did not display increased anxiety

— patent US10124035B2, “DISC-1 pathway activators in the control of neurogenesis” (Massachusetts Institute of Technology, priority 2008, dated 2018)
